Consider two compounds from publication PMC4502315, “High Potency of a Novel Resveratrol Derivative, 3,3′,4,4′-Tetrahydroxy-trans-stilbene, against Ovarian Cancer Is Associated with an Oxidative Stress-Mediated Imbalance between DNA Damage Accumulation and Repair” (Oxidative Medicine and Cellular Longevity, 2015).

Molecules are shown by their SMILES.

For orientation: viability means a read-out of living cells in per cent, often relative to untreated cells. As a reminder, the IC50 is the concentration needed to halve the response being measured.

Series [1] has as its system DNA glycosylase I (hOgg1). The experiment in a line: DNA glycosylase I (hOgg1) mRNA expression (RT-PCR), ovarian cancer cells. It counts as cell-based, human. The settings on record: all three cancer cell lines; after preincubation with stilbene, 24-h recovery. The procedure: (§1) Oxidative DNA damage was assessed by measuring the 8-OH-dG concentration with a competitive immunoassay (Cell Biolabs Inc.), as per manufacturer's instructions. The efficiency of 8-OH-dG repair was estimated after cell recovery for 24 h in standard growth medium. In order to examine the activity of DNA glycosylase I, reverse transcription PCR was performed. RNA extraction was carried out using the RNA Bee (Tel-Test, Friendswood, Texas, USA) and purified according to the manufacturer's protocol. One microgram of RNA was reverse transcribed into cDNA with random hexamer primers, and cDNA was subjected to PCR. The profile of the replication cycles was denaturation at 94°C for 50 s, annealing at 58°C for 50 s, and polymerization at 72°C for 1 min. In each reaction, the expression of glyceraldehyde-3-phosphate dehydrogenase (GAPDH) served as the internal control. The primers used for PCR were as follows: hOGG1 forward, 5′-[…]-3′; hOGG1 reverse, 5′-TAGCCCGCCCTGTTCTTC-3′ designed to amplify a 551-bp region; GAPDH forward, 5′-CCATGGAGAAGGCTGGGG-3′; and GAPDH reverse 5′-[…]-3′ designed to amplify a 194-bp region (total number of cycles: 28). The PCR products were separated on 3% agarose gels stained with ethidium bromide and then visualized.

In series [2] the test system is HPMCs. The experiment in a line: ROS production (H2DCFDA), HPMCs. The format is cell-based, human. The settings on record: 24 h, percentage of control cells. The procedure: (§2) ROS production was assessed in cells probed with a fluorescent dye, 2′,7′-dichlorodihydrofluorescein diacetate (H2DCFDA; 5 μM) (Molecular Probes, Eugene, USA) for 45 min at 37°C. Fluorescence intensity in cell lysates was monitored in a Victor2 spectrofluorometer with excitation at 485 nm and emission at 535 nm.

For series [3], the system named is A2780 cells. The experiment in a line: Cell proliferation (CFDA SE), A2780. The format is cell-based, human. The note with it: low-density cultures, 24 h, 10, 50, 100 μM tested. As to the method:
(§3) Cell proliferative potential was determined using Cell Proliferation Kit I (PromoKine, Heidelberg, Germany) according to the manufacturer's instructions. In brief, cells were probed for 15 min with 5-(and 6)-carboxyfluorescein diacetate, a succinimidyl ester (CFDA SE; 2 μM) which diffuses into cells, covalently binds to proteins, and becomes fluorescent upon its hydrolysis by intracellular esterases. The fluorescence emitted by the cells (the dye is inherited by the daughter cells through successive divisions) was recorded using a Victor2 spectrofluorometer (Perkin-Elmer, Turku, Finland) with excitation at 435 nm and emission at 535 nm.

For series [4], the system named is A2780 cells. The experiment in a line: Oxidative DNA damage (8-OH-dG immunoassay), A2780. It counts as cell-based, human. The note with it: 24 h, 10, 50, 100 μM tested. As to the method: as §1
Series [5] deals with ovarian cancer cells (A2780, OVCAR-3, SKOV-3). The experiment in a line: Efficiency of 8-OH-dG repair after 24-h recovery, ovarian cancer cells. The settings on record: all three cancer cell lines; 24-h stilbene exposure then 24-h recovery. The format is cell-based, human. As to the method:
as §1
The cancer cells were treated with RVT and 3,3′,4,4′-THS to cause DNA injury; then they were washed and kept in standard growth medium to recover.

The test system of series [6] is SKOV-3 cells. The experiment in a line: Cell proliferation (CFDA SE), SKOV-3. It counts as cell-based, human. The settings on record: low-density cultures, 24 h, 10, 50, 100 μM tested. The procedure: as §3
Series [7] has as its system OVCAR-3 cells. The experiment in a line: ROS production (H2DCFDA), OVCAR-3. The format is cell-based, human. The settings on record: 24 h, 10, 50, 100 μM tested. As to the method: as §2
Series [8] concerns HOSE cells. The experiment in a line: ROS production (H2DCFDA), HOSE cells. It counts as cell-based, human. The note with it: 24 h, percentage of control cells. The procedure: as §2
For series [9], the system named is OVCAR-3. The experiment in a line: LDH release assay, OVCAR-3. The note with it: Homo sapiens, 24 h; for IC50: CalcuSyn. The format is cell-based. As to the method: (§4) As per LDH release, the measurements were performed using the commercially available Pierce LDH Cytotoxicity Assay Kit (Pierce Biotechnology, Rockford, IL, USA). In this assay, cells with damaged plasma membranes release LDH into the culture environment; then the enzyme catalyses the conversion of lactate to pyruvate, which is accompanied by a reduction of NAD^+ to NADH. Afterwards, diaphorase uses NADH to reduce a tetrazolium salt to a formazan whose level is proportional to LDH activity. The absorbance emitted by the formazan was monitored at 490 nm with a reference wavelength of 680 nm.
(§5) In order to examine the effect of 3,3′,4,4′-THS on the viability of ovarian cancer cells and to compare its activity with RVT, subconfluent cultures of A2780, OVCAR-3, and SKOV-3 cells were subjected to a wide range of stilbene concentrations (0–500 μM) for 24 h; then MTT and LDH release assays were performed.

For series [10], the system named is catalase (CAT). Put plainly: CAT activity, HOSE cells. The format is cell-based, human. The note with it: 24 h, percentage of control cells. The procedure:
(§6) Total activity of superoxide dismutase (SOD) was measured in cell lysates with a commercially available kit (R&D Systems Europe, Abingdon, UK), while the activity of catalase (CAT) was estimated by using the OxiSelect Catalase Activity Assay Kit (Cell Biolabs Inc., San Diego, CA, USA). Both assays were performed according to the manufacturer's instructions.

Series [11] concerns SKOV-3. Put plainly: LDH release assay, SKOV-3. The format is cell-based. The settings on record: Homo sapiens; for IC50: SK-OV-3, 24 h, CalcuSyn. As to the method:
as §4, §5

Series [12] can be described thus: LDH release assay, HPMCs. It counts as cell-based, human. The settings on record: human, percentage of control cells.
Series [13] relates to p38 MAPK. The experiment in a line: p38 MAPK activation (FACE ELISA), SKOV-3. It counts as cell-based, human. The settings on record: 24 h, 10, 50, 100 μM tested. As to the method: Activation of p38 MAPK was examined using the Fast Activated Cell-Based ELISA (FACE) p38 kit (Active Motif) according to the manufacturer's instructions. In brief, cells were fixed with 4% formaldehyde and incubated with a primary antibody that recognizes either phosphorylated p38 or total p38 overnight at 4°C. Then the cells were washed and incubated with a secondary HRP-conjugated antibody for 1 h at room temperature. The color reaction that developed was read using a spectrofluorometer at 450 nm wavelength.
The results were expressed as a ratio of phosphorylated to total p38 activity.

The subject of series [14] is catalase (CAT). The experiment in a line: CAT activity, SKOV-3. The format is cell-based, human. The note with it: 24 h, 10, 50, 100 μM tested. The procedure:
as §6

Consider `Oc1ccc(/C=C/c2ccc(O)c(O)c2)cc1O` [3,3′,4,4′-THS, 3,3′,4,4′-tetrahydroxy-trans-stilbene], for which the “hOgg1 mRNA expression during recovery, in words” value in series [1] is “remarkably lower as compared to values characterizing cells subjected to RVT”. Further, the ROS in series [2] (10 μM) was 104 ± 4%; in [2] (50 μM) it was 102 ± 3%; in series [2] (100 μM), 82 ± 1^∗# %; in series [8] (10 μM) it was 75 ± 4^∗# %; in series [8] (50 μM), 72 ± 3^∗# %; in series [8] (100 μM), 99 ± 4 %. Moreover, the “proliferation, effect in words” value in series [3] and in [6] was “evident at as low a concentration as 10 μM” each time. The “concentration of 8-OH-dG (oxidative DNA damage), effect in words” value in [4] was “only concentrations of 50 and 100 μM were effective”. In addition, in series [5], the “8-OH-dG level after 24-h recovery in standard growth medium, in words” value is on record as “still markedly higher than in the unstimulated cells”. For the same compound, the “generation of ROS, effect in words” value in [7] is given as “remarkably stronger”. The viability at 10 µM in series [9] (10 μM, percentage of control cells) came to 62 ± 12%; in series [11] (SK-OV-3, 10 μM, 24 h, percentage of control cells), 50 ± 2%. Also, the viability at 50 µM in series [9] (50 μM, percentage of control cells) is 53 ± 3%; in series [11] (SK-OV-3, 50 μM, 24 h, percentage of control cells), 32 ± 12%. Moreover, the viability at 100 µM in series [9] (100 μM, percentage of control cells) stood at 46 ± 3%; in series [11] (SK-OV-3, 100 μM, 24 h, percentage of control cells), 24 ± 7%. Moreover, the half-maximal inhibitory concentration (IC50) in [9] was 85 µM; in series [11] it was 10 µM. In addition, the CAT in series [10] (10 μM) was 132 ± 1^∗# %; in series [10] (50 μM), 163 ± 4^∗# %; in [10] (100 μM) it was 162 ± 1^∗# %. For the same compound, the viability at 24 h, 10 µM in [12] (10 μM) worked out at 101 ± 2%. Further, the viability at 24 h, 50 µM in series [12] (50 μM) came to 100 ± 4%. In addition, in [12] (100 μM), the viability at 24 h, 100 µM came to 102 ± 2%. In [13], the “p38 MAPK activity (phosphorylated/total), effect in words” value was “exerted upregulatory activity at 50 and 100 μM”. In addition, in series [14], the “CAT activity, effect in words” value is “downregulated it in the SKOV-3 cells at 50 and 100 μM”.

For the compound `Oc1ccc(/C=C/c2cc(O)cc(O)c2)cc1` [RVT, 3,4′,5-trihydroxy-trans-stilbene, reference compound], the ROS in [2] (10 μM) is 108 ± 4^∗ %; in series [2] (50 μM), 106 ± 11%; in series [2] (100 μM), 105 ± 7%; in series [8] (10 μM) it was 103 ± 3%; in series [8] (50 μM), 105 ± 4%; in [8] (100 μM), 121 ± 7^∗ %. The entries for the “proliferation, effect in words” value in series [3] and in [6] were “effectively reduced the expandability” and “such a low dose was effective in SKOV-3 cultures only”, respectively. The “concentration of 8-OH-dG (oxidative DNA damage), effect in words” value in [4] was “induced DNA injury in A2780 and SKOV-3 at 50 and 100 μM”. For the same compound, in series [5], the “8-OH-dG level after 24-h recovery in standard growth medium, in words” value is “returned to basal values within 24 h”. In series [7], the “generation of ROS, effect in words” value is on record as “stimulated the release of ROS”. Besides, the half-maximal inhibitory concentration (IC50) in [9] is 525 µM; in [11] it was 346 µM. The CAT is 121 ± 6^∗ % in series [10] (10 μM), 119 ± 4^∗ % in [10] (50 μM) and 121 ± 6^∗ % in [10] (100 μM). Also, the “p38 MAPK activity (phosphorylated/total), effect in words” value in series [13] is reported as “failed to activate p38 MAPK”. Besides, the “CAT activity, effect in words” value in series [14] was “stimulated the enzyme at 10 μM in the OVCAR-3 cells, at 50 μM in the A2780, OVCAR-3, and SKOV-3 cells, and at 100 μM in the OVCAR-3 and SKOV-3 cells”.
